Data published in PMC9180407, “Unraveling the Binding Mechanism of Alzheimer’s Drugs with Irisin: Spectroscopic, Calorimetric, and Computational Approaches” (International Journal of Molecular Sciences, 2022).
Like-named read-outs stand apart in the source and are kept apart here.

Biological target: T1, irisin (Homo sapiens, UniProt Q8NAU1)
T1 construct: gene FNDC5; irisin (secreted ectodomain cleaved from FNDC5), His tag with 3C site (pET15b-His-3C-irisin), tag cleavage not mentioned, E. coli C41-DE3, Ni-NTA purified
T1 sequence (Q8NAU1 80-191 limits assumed): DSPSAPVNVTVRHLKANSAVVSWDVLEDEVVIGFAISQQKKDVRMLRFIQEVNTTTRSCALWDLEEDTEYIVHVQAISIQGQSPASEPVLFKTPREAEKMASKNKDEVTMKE
Assay: isothermal titration calorimetry
Assay type: binding
Description: isothermal titration calorimetry on irisin

| Compound | Kd (read-out: Ka1 (converted)) [µM] | Kd (read-out: Ka2 (converted)) [µM] |
| --- | --- | --- |
| CNCCC(Oc1ccc(C(F)(F)F)cc1)c1ccccc1 (stereo not drawn) [fluoxetine] | 0.156 | – |
| COc1ccc2c3c1O[C@H]1C[C@@H](O)C=C[C@@]31CCN(C)C2 [galantamine] | – | 8.06 |
| CC12CC3CC(C)(C1)CC(N)(C3)C2 [memantine] | – | 9.35 |
